Our source for the IC50 and IC90 values is ChEMBL document CHEMBL4483862, “Open-source discovery of chemical leads for next-generation chemoprotective antimalarials” (2018).

The test system of the experiment is Plasmodium berghei. Nature of the experiment: Luciferase/luciferin-expressing antifolate-resistant parasites were used to infect a culture of HepG2 cells that were pre-incubated with compounds. Infected hepatocytes emit light due to the luciferase reaction. Assay results are presented as the percent inhibition of light emission compared to control. […]. The format is functional. Conditions: sporozoite; for IC90: read-out: LUCIFERASE INFECTION ASSAY - IC90.

[1] abbreviates: read-out: LUCIFERASE INFECTION ASSAY - IC50.

Take `CC(C)CCCC(C)NC(=O)CSCc1cccc(C(=O)O)c1` (centres undefined): the IC90 is above 10 µM. Moreover, the IC50 under setting [1] is above 10 µM.

As to `CCS(=O)(=O)N1Cc2ccccc2CC1C(=O)Nc1nc2ccc(F)cc2s1` (centres undefined), the IC90 was above 10 µM. The IC50 (PBLUC_HILL_SLOPE 0.63, PBLUC_R_SQUARED 0.752, read-out: LUCIFERASE INFECTION ASSAY - IC50) was found to be 2.29 µM.

For `CCCNC(=O)c1c(NC(=O)c2cc(F)ccc2F)nc2ccc(C)cn12`, the IC90 is 1.18 µM. The IC50 (FFLUC_HILL_SLOPE 10.5, FFLUC_R_SQUARED 0.751, HEPG2TOX_HILL_SLOPE 1.41, HEPG2TOX_R_SQUARED 0.982, PBLUC_HILL_SLOPE 15, PBLUC_R_SQUARED 0.726, read-out: LUCIFERASE INFECTION ASSAY - IC50) amounted to 1.02 µM.

Take `O=C(Nc1cccc(F)c1)Nc1ccc2nc(-c3cccs3)nn2c1`: the IC90 was determined as 4.34 µM. Also, the IC50 (PBLUC_HILL_SLOPE 208, PBLUC_R_SQUARED 0.19, read-out: LUCIFERASE INFECTION ASSAY - IC50) amounted to 4.29 µM.

Turning to `O=C(CSCCc1nc(-c2ccc(Cl)cc2)cs1)N/N=C/c1ccccc1`, the IC90 was determined as 3.43 µM. In addition, the 50% inhibitory concentration (IC50) (PBLUC_HILL_SLOPE 13.2, PBLUC_R_SQUARED 0.406, read-out: LUCIFERASE INFECTION ASSAY - IC50) came to 2.9 µM.

Regarding `O=C(Nc1ccccc1C(=O)OCN1C(=O)c2ccccc2C1=O)c1ccc([N+](=O)[O-])cc1Cl`, the IC90 was above 10 µM. Further, the IC50 under setting [1] was above 10 µM.

For the compound `CCOC(=O)c1c(C)c(C)n(Cc2ccccc2)c1NC(=O)c1ccccc1`, the IC90 is above 8.77 µM. In addition, the IC50 (PBLUC_HILL_SLOPE 3.81, PBLUC_R_SQUARED 0.298, read-out: LUCIFERASE INFECTION ASSAY - IC50) stood at 6.38 µM.

On to `Cc1ccc(C(=O)C(/C=N/N)=N/Nc2cc(Cl)cc(Cl)c2)cc1`, for which the IC90 is above 9.45 µM. In addition, under setting [1], the IC50 worked out at 9.09 µM.

Take `O=C(NCc1ccc(C(F)(F)F)cc1)c1cc(C(F)(F)F)cc(C(F)(F)F)c1`: the IC90 was above 7.95 µM. For the same compound, under setting [1], the IC50 is above 7.95 µM.

Turning to `CC(C(=O)NCc1ccco1)c1ccc2c(c1)[nH]c1ccc(Cl)cc12` (centres undefined), the IC90 is above 9.35 µM. In addition, the IC50 (PBLUC_HILL_SLOPE 15.7, PBLUC_R_SQUARED 0.128, read-out: LUCIFERASE INFECTION ASSAY - IC50) was above 9.35 µM.

As to `CCc1sc(C(=O)NNC(=O)CN2CCN(c3ccc([N+](=O)[O-])cc3)CC2)cc1C`, the IC90 is above 10 µM. For the same compound, the IC50 under setting [1] was above 10 µM.

Take `Cc1nc(-c2ccccn2)nc(N(C)Cc2ccccc2)c1Cl`: the IC90 stood at 3.5 µM. For the setting “PBLUC_HILL_SLOPE 72.3, PBLUC_R_SQUARED 0.385, read-out: LUCIFERASE INFECTION ASSAY - IC50”, the IC50 came out at 3.4 µM.

With `CSc1cccc(N2C(=O)C=C(C)C2=O)c1`, the IC90 is above 14.1 µM. The IC50 (PBLUC_HILL_SLOPE 2.08, PBLUC_R_SQUARED 0.24, read-out: LUCIFERASE INFECTION ASSAY - IC50) was 13.4 µM.

Turning to `CN(C)c1ccc(/C=C(\C#N)C(=O)c2ccc(-n3nncc3C34CC5CC(CC(C5)C3)C4)cc2)cc1`, the IC90 was above 10 µM. Besides, the IC50 (FFLUC_HILL_SLOPE 2.12, FFLUC_R_SQUARED 0.418, PBLUC_HILL_SLOPE 11.3, PBLUC_R_SQUARED 0.267, read-out: LUCIFERASE INFECTION ASSAY - IC50) is above 10 µM.

As for `NC(Cc1ccccc1)c1csc(Nc2ccc(C(=O)c3ccccc3)cc2)n1` (centres undefined), the IC90 worked out at 1.15 µM. Under “HEPG2TOX_HILL_SLOPE 7.62, HEPG2TOX_R_SQUARED 0.882, PBLUC_HILL_SLOPE 15.6, PBLUC_R_SQUARED 0.562, read-out: LUCIFERASE INFECTION ASSAY - IC50”, the IC50 came out at 1 µM.

For `CCN1C/C(=C/c2cc(Cl)c(OC(C)C)c(OC)c2)C(=O)/C(=C/c2cc(Cl)c(OC(C)C)c(OC)c2)C1`, the IC90 was 3.46 µM. Moreover, the IC50 (HEPG2TOX_HILL_SLOPE 9.62, 4.07, HEPG2TOX_R_SQUARED 0.967, 0.574, PBLUC_HILL_SLOPE 16.5, 9.41, PBLUC_R_SQUARED 0.287, 0.470, read-out: LUCIFERASE INFECTION ASSAY - IC50) was determined as 2.85 µM.

For the compound `CC(=O)Nc1ccc(C(=S)NCCCN2CCCC2=O)cc1`, the IC90 is above 10 µM. The IC50 under setting [1] was above 10 µM.

For `O=C1CC(c2cccc3ccccc23)c2c([nH]c(-c3ccccc3)nc2=O)N1` (centres undefined), the IC90 was above 8.98 µM. Further, the IC50 under setting [1] is above 8.98 µM.

For the compound `CCOc1ccccc1CCC(=O)NCc1ccc(CS(N)(=O)=O)cc1`, the IC90 is above 10 µM. Moreover, the IC50 under setting [1] was above 10 µM.

As to `CN(Cc1cnn(Cc2ccccc2)c1)C(=O)c1cccc(S(=O)(=O)N2CCc3ccccc32)c1`, the IC90 was determined as 9.38 µM. For the same compound, the IC50 (HEPG2TOX_HILL_SLOPE 1.04, HEPG2TOX_R_SQUARED 0.954, PBLUC_HILL_SLOPE 3.29, PBLUC_R_SQUARED 0.175, read-out: LUCIFERASE INFECTION ASSAY - IC50) came to 4.81 µM.

Consider `Nc1ccc(OC2=C(Cl)C(=O)c3ccccc3C2=O)cc1`, for which the 90% effect concentration (IC90) is 5.91 µM. Further, the IC50 (HEPG2TOX_HILL_SLOPE 2.46, HEPG2TOX_R_SQUARED 0.976, PBLUC_HILL_SLOPE 10.6, PBLUC_R_SQUARED 0.396, read-out: LUCIFERASE INFECTION ASSAY - IC50) was 4.8 µM.

Consider `Cc1nc2ccccc2n1CCC(=O)Nc1cccc(C(F)(F)F)c1`, for which the IC90 was determined as 8.78 µM. For the same compound, the IC50 (PBLUC_HILL_SLOPE 3.83, PBLUC_R_SQUARED 0.29, read-out: LUCIFERASE INFECTION ASSAY - IC50) was determined as 4.95 µM.

Consider `Cc1ccc(/C=N/n2c(-c3cc(C)c(C)cc3C)cs/c2=N\CC2CCCO2)o1` (centres undefined), for which the IC90 stood at 3.52 µM. Further, the IC50 (FFLUC_HILL_SLOPE 16.3, FFLUC_R_SQUARED 0.0442, HEPG2TOX_HILL_SLOPE 1.44, HEPG2TOX_R_SQUARED 0.874, PBLUC_HILL_SLOPE 40.1, PBLUC_R_SQUARED 0.415, read-out: LUCIFERASE INFECTION ASSAY - IC50) turned out to be 3.33 µM.

Consider `CC(=O)c1c(C)[n+]([O-])c2ccccc2[n+]1[O-]` [MEQUINDOX], for which the IC90 was above 15.1 µM. For the same compound, the IC50 (FFLUC_HILL_SLOPE 0.566, FFLUC_R_SQUARED 0.11, read-out: LUCIFERASE INFECTION ASSAY - IC50) is above 15.1 µM.

As to `Cc1ccsc1/C=C/c1ccc2cccc(O)c2n1`, the IC90 was above 10 µM. Also, the IC50 (PBLUC_HILL_SLOPE 14, PBLUC_R_SQUARED 0.406, read-out: LUCIFERASE INFECTION ASSAY - IC50) turned out to be 9.41 µM.

For the compound `CC(C)c1ccc(Nc2nccc3nc(-c4cccc(C(C)C)c4)[nH]c23)cc1`, the IC90 is above 10 µM. In addition, the IC50 (HEPG2TOX_HILL_SLOPE 1.74, HEPG2TOX_R_SQUARED 0.684, PBLUC_HILL_SLOPE 1.1, PBLUC_R_SQUARED 0.805, read-out: LUCIFERASE INFECTION ASSAY - IC50) worked out at 2.41 µM.

Take `CC(C)c1nc(-c2c(N)n(Cc3ccccc3)c(=O)n(C)c2=O)sc1C(=O)c1cc(F)ccc1F`: the IC90 is above 10 µM. Besides, the IC50 under setting [1] came out at 9.55 µM.

In the case of `COc1ccccc1NS(=O)(=O)c1ccc2c(c1)N=Cc1c(C)nn(-c3ccc(Cl)cc3)c1O2`, the IC90 was above 10 µM. Also, the IC50 (HEPG2TOX_HILL_SLOPE 6.8, HEPG2TOX_R_SQUARED 0.772, PBLUC_HILL_SLOPE 15.5, PBLUC_R_SQUARED 0.126, read-out: LUCIFERASE INFECTION ASSAY - IC50) amounted to 9.36 µM.

Consider `O=C(CCc1nc2ccccc2s1)N(Cc1ccccc1F)C1CC1`, for which the IC90 was above 10 µM. Besides, under setting [1], the IC50 is above 10 µM.

Consider `CC(C)n1ncc2cc(C(=O)Nc3nnc(-c4ccccn4)[nH]3)cnc21`, for which the IC90 is above 10 µM. For the same compound, the IC50 (PBLUC_HILL_SLOPE 1.86, PBLUC_R_SQUARED 0.0303, read-out: LUCIFERASE INFECTION ASSAY - IC50) was 6.07 µM.

In the case of `Cc1ccc(S(=O)(=O)Nc2ccc(C(=O)Nc3ccccc3O)cc2)cc1C`, the IC90 is 2.52 µM. For the same compound, the IC50 (PBLUC_HILL_SLOPE 2.83, PBLUC_R_SQUARED 0.529, read-out: LUCIFERASE INFECTION ASSAY - IC50) turned out to be 1.16 µM.

For `COc1ccc(-c2cn3c(-c4cccc(O)c4)cnc3cn2)cn1`, the IC90 is above 10.4 µM. In addition, the IC50 under setting [1] is above 10.4 µM.

Take `CCCCNC(=O)c1c(NC(=O)c2ccc(OC)cc2)nc2ccc(C)cn12`: the IC90 turned out to be 8.55 µM. For the setting “HEPG2TOX_HILL_SLOPE 7.85, HEPG2TOX_R_SQUARED 0.829, PBLUC_HILL_SLOPE 17, PBLUC_R_SQUARED 0.0919, read-out: LUCIFERASE INFECTION ASSAY - IC50”, the IC50 was determined as 7.51 µM.

`CCCn1c(C)cc(C(=O)CN(C)S(=O)(=O)c2ccc(Cl)cc2)c1C`: the IC90 is above 10 µM. Under “HEPG2TOX_HILL_SLOPE 3.32, HEPG2TOX_R_SQUARED 0.751, PBLUC_HILL_SLOPE 15.5, PBLUC_R_SQUARED 0.301, read-out: LUCIFERASE INFECTION ASSAY - IC50”, the IC50 worked out at 9.26 µM.

For `COc1ccc(-c2cnc3cnc(-c4ccc(CNc5ccccc5)cc4)cn23)cc1`, the IC90 was above 8.12 µM. Besides, under “FFLUC_HILL_SLOPE 9.54, FFLUC_R_SQUARED 0.167, PBLUC_HILL_SLOPE 2.96, PBLUC_R_SQUARED 0.482, read-out: LUCIFERASE INFECTION ASSAY - IC50”, the IC50 was 4.66 µM.

On to `COCCNc1nc(Nc2ccc(C)cc2C)c2sccc2n1`, for which the IC90 was above 10 µM. For the same compound, the IC50 (HEPG2TOX_HILL_SLOPE 2.54, HEPG2TOX_R_SQUARED 0.987, PBLUC_HILL_SLOPE 3.36, PBLUC_R_SQUARED 0.0445, read-out: LUCIFERASE INFECTION ASSAY - IC50) is above 10 µM.

For the compound `COc1ccc(N2C(=N)C(c3nc4ccccc4s3)C(=O)C2c2ccccc2)cc1` (centres undefined), the IC90 was found to be 4.06 µM. For the same compound, the IC50 (PBLUC_HILL_SLOPE 428, PBLUC_R_SQUARED 0.387, read-out: LUCIFERASE INFECTION ASSAY - IC50) is 4.04 µM.
